Laboratory results reported in paper PMC10644263 (Biochemistry, 2020).
Where “and” joins values, the source holds several entries; their conditions need not be identical. Equal entries are not always repeated.

Legend:
HpMTAN = target: T1, HpMTAN (Helicobacter pylori, UniProt Q9ZMY2); assay: Inhibition of HpMTAN; assay type: biochemical; conditions: 37 °C
T1 sequence (Q9ZMY2 1-230): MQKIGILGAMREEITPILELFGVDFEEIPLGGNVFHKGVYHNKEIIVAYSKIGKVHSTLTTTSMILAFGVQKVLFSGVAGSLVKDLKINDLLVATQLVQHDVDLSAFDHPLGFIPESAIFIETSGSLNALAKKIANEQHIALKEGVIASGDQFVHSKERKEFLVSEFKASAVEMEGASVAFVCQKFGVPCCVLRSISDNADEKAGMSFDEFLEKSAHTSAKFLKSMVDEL

SaMTAN = target: T2, SaMTAN (Staphylococcus aureus, UniProt Q5HFG2); assay: Inhibition of SaMTAN; assay type: biochemical; conditions: 37 °C, compared with MTDIA
T2 sequence (Q5HFG2 1-228): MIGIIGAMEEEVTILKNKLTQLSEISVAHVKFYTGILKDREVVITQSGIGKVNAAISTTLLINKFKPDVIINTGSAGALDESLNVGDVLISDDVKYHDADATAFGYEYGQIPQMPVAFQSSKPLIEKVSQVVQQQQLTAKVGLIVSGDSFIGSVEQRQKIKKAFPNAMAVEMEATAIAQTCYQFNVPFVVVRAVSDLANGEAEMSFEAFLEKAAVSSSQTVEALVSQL

Nc1ncnc2c(CN3C[C@H](CSCCOCCO)[C@@H](O)C3)c[nH]c12 [Compound 2]
improvement of Ki/affinity relative to MTDIA for HpMTAN (HpMTAN; compared with MTDIA): 14 fold | improvement of Ki relative to MTDIA for SaMTAN (SaMTAN): 81 fold

CSC[C@H]1CN(Cc2c[nH]c3c(N)ncnc23)C[C@@H]1O [MTDIA, Methylthio-DADMe-Immucillin-A]
Ki (HpMTAN; read-out: Ki (dissociation constant) for HpMTAN): 1 nM and 1.25 nM
